# Assay results taken from patent publication US20240049721A1, “COMPOSITIONS AND METHODS FOR CONTROLLING FUNGI” (priority 2020, published 2024).
# “And” between values parts separate entries of the source, which are not always exact repeats. Equal entries are not always repeated.
# How the values were obtained:
# Fusarium graminearum = format: in vivo; settings: wheat crop
# Leaf blotch = experiment: Wheat trial: leaf blotch; format: in vivo; settings: wheat crop
# [1] = Loading (encapsulation) efficacy of essential oils into AgriCell; format: physicochemical; settings: EO encapsulated into AgriCell; original EO concentration 200 mg/mL; UV-Vis at 280 nm after ethanol extraction
# Experimental: After AgriCells are purified, the concentrated AgriCell paste or dry lyophilized powder is loaded with EOs. If dry, the AgriCells are first homogenized into a finer powder through mechanical homogenization. A stock solution from each EO is prepared in ethanol at 100 mg/mL-200 mg/mL. Lyophilized AgriCells would then be suspended in a solution with the EO solution at a ratio of 1 g of dry AgriCells to 10 mL of EO solution. Once resuspended, the ethanol is allowed to evaporate overnight, leaving behind EO encapsulated AgriCells in the process. After this overnight period, encapsulated AgriCells are removed from the beaker, and the EO-encapsulated AgriCell powder is mechanically homogenized. This encapsulated product is ready for resuspension in its appropriate medium. Loading efficacy was measured and/or calculated as percentage of EO loaded into AgriCell after extraction with ethanol 100% v/v and quantification by UV-Vis spectroscopy. Eugenol, geraniol and thymol were quantified at 280 nm.
# [2] = Thermal degradation of essential oils at 40° C.; format: physicochemical
# Experimental: (§1) AgriCell-encapsulated EOs, which were AC-Eugenol, AC-Geraniol, and AC-Thymol, (200 mg/mL of EO loaded with 200 mg/mL of AgriCell) were diluted 1:10 in deionized water (total volume 1000 μL, 14 replicates for each EO) and the solutions were left at 40° C. for a total period of 7 days. One replicate of each EO per treatment was collected daily and tested for EO content. Results were reported as concentration of EO as function of time for each stability condition.
# [3] = Oxidative degradation of essential oils under UV and Vis light; format: physicochemical
# Experimental: as §1, with “under UV radiation” for “at 40° C.”, “content by UV-Vis spectroscopy as described in Example 2.” for “content.”
# [4] = Thermogravimetric analysis (TGA) 37° C. to 500° C.; format: physicochemical; settings: temperature increase from 37° C. to 500° C.
# Experimental: FIG. 9 illustrates thermogravimetric Analysis (“TGA”) between AgriCell encapsulated Thymol (“AC Thymol”) and free Thymol (“Thymol”; not encapsulated by AgriCell) along with gradual increase of temperature from 37° C. to 500° C.
# Botrytis cinerea = settings: against B. cinerea; reported value; cited from earlier work
smiles,measurement,setting,value
"CC(C)(C)C(O)(CCc1ccc(Cl)cc1)Cn1cncn1 (stereo not drawn) [Tebuconazole (Folicur), Tebuconazole]",Average FHB severity %,Fusarium graminearum,8.3% and 1.5%
same,FHB Incidence %,Fusarium graminearum,4.2% and 2.5%
same,Leaf blotch Incidence %,Leaf blotch,100%
same,Leaf blotch severity %,Leaf blotch,3.6% and 3.8%
C=CCc1ccc(O)c(OC)c1 [eugenol],encapsulation efficacy,[1],95.5%
same,percentage of degradation (thermal),"[2]; 7 days, 20 mg/mL",82.6%
same,oxidative degradation (reduction of EO),"[3]; 7 days, 20 mg/mL",82.6%
CC(C)=CCC/C(C)=C/CO [geraniol],encapsulation efficacy,[1],89.0%
same,percentage of degradation (thermal),"[2]; 40° C., day 7, diluted 1:10 in deionized water",84.2%
same,oxidative degradation (reduction of EO),"[3]; UV radiation, after 7 days, diluted 1:10 in deionized water",72.6%
Cc1ccc(C(C)C)c(O)c1 [thymol],encapsulation efficacy,[1],91.8%
same,percentage of degradation (thermal),"[2]; 7 days, 20 mg/mL",79.1%
same,oxidative degradation (reduction of EO),"[3]; 7 days, 20 mg/mL",55.8%
same,start of accelerated degradation (TGA),[4],about 62 °C
same,reported EC50,Botrytis cinerea,21.32 µg/mL
